Data: patent US5968910A, “Compositions containing two or three inhibitors of different HIV reverse transcriptases” (priority 1994, dated 1999)
≈ marks a conversion by molar mass, not a printed value. Where two headings read alike, the source gives them in different places.

Tests used:
HIV-1 RT (WT) = HIV-1 RT (WT) (Human immunodeficiency virus type 1 group M subtype B, UniProt P03366); assay: biochemical
Method in brief: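 Inhibition read as reduced incorporation of [2,8-³H]dGTP (2.95 μM) into acid-precipitable product on a poly(C).oligo(dG) template/primer (0.1 mM). Recombinant RT, test compounds in 5-fold dilutions; 30 min, 37° C, pH 7.8 Tris buffer with 5 mM Mg2+, 150 mM KCl.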

HIV-1(IIIB) (WT) = assay: microbe, parasite or virus in culture; type: cell-based; conditions: Human immunodeficiency virus 1, IIIB, CCRF-CEM
Method in brief: (§1)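 CEM cells at 250,000 cells/ml were infected with HIV-1 at 100 CCID50 per ml, then mixed with serial dilutions of test compound. After 4 days at 37° C., cultures were scored for syncytium formation.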

HIV-1(IIIB) = assay: Knock-out concentrations: breakthrough of HIV-1(IIIB)-induced cytopathicity in CEM cell cultures; type: cell-based; conditions: for activity at 0.1 µg/mL / activity at 0.5 µg/mL / activity at 2.5 µg/mL: Human immunodeficiency virus 1, IIIB, CCRF-CEM, read-out: HIV-1-induced cytopathicity in cell culture; for activity at 0.1 µg/mL: 0.1 μg/ml; for activity at 0.5 µg/mL: 0.5 μg/ml; for activity at 2.5 µg/mL: 2.5 μg/ml
Method in brief: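 CEM cells in RPMI 1640 with 10% FBS infected with HIV-1(IIIB) at ~1000× CCID50, subcultured every 3–4 days into fresh uninfected cells with drug held constant for 10 subcultivations (35 days), then ≥5 drug-free passages. Breakthrough scored by syncytium formation. Combinations used the two lowest single-drug starting concentrations.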

[1] = system: HIV-1/TSAO-m^3 T (138-Lys); assay: Sensitivity of mutant HIV-1 strain in CEM cell cultures; type: cell-based; conditions: Human immunodeficiency virus 1, CCRF-CEM; CEM cells, Table 1; read-out: 50% Effective Concentration
Method in brief: as §1

HIV-1/II(0.1) 100-Ile = assay: as above; type: cell-based; conditions: Human immunodeficiency virus 1, CCRF-CEM; Table 5; read-out: EC50
Method in brief: as §1

[2] = system: HIV-1/TIBO R82913 (103-Asn); assay: as above; type: cell-based; conditions: Human immunodeficiency virus 1, CCRF-CEM; CEM cells, Table 1; read-out: 50% Effective Concentration
Method in brief: as §1

[3] = system: HIV-1/V(0.1) 101-Ile + 141-Glu; assay: as above; type: cell-based; conditions: Human immunodeficiency virus 1, CCRF-CEM; Table 5; read-out: EC50
Method in brief: as §1

HIV-1/V(0.5) 103-Asn = assay: as above; type: cell-based; conditions: Human immunodeficiency virus 1, CCRF-CEM; Table 5; read-out: EC50
Method in brief: as §1

HIV-1/III(0.1) 103-Asn = assay: as above; type: cell-based; conditions: Human immunodeficiency virus 1, CCRF-CEM; Table 5; read-out: EC50
Method in brief: as §1

HIV-1/Nev (106-Ala) = assay: as above; type: cell-based; conditions: Human immunodeficiency virus 1, CCRF-CEM; CEM cells, Table 1; read-out: 50% Effective Concentration
Method in brief: as §1

[4] = system: HIV-1/TIBO R82150 (100-Ile); assay: as above; type: cell-based; conditions: Human immunodeficiency virus 1, CCRF-CEM; CEM cells, Table 1; read-out: 50% Effective Concentration
Method in brief: as §1

HIV-1/I(0.1) 103-Asn = assay: as above; type: cell-based; conditions: Human immunodeficiency virus 1, CCRF-CEM; Table 5; read-out: EC50
Method in brief: as §1

HIV-1/Pyr (181-Cys) = assay: as above; type: cell-based; conditions: Human immunodeficiency virus 1, CCRF-CEM; CEM cells, Table 1; read-out: 50% Effective Concentration
Method in brief: as §1

HIV-1/IV(0.1) 103-Thr = assay: as above; type: cell-based; conditions: Human immunodeficiency virus 1, CCRF-CEM; Table 5; read-out: EC50
Method in brief: as §1

[5] = 936 h, day 39 post infection, compound absent from day 35
[6] = 1008 h, day 42 post infection, compound absent from day 35
[7] = 1104 h, day 46 post infection, compound absent from day 35
[8] = 1176 h, day 49 post infection, compound absent from day 35
[9] = 1272 h, day 53 post infection, compound absent from day 35

Question: How did the IC50 (HIV-1 RT (WT); range stated for the compounds together, poly(C).oligo(dG), 2.95 μM [2,8-3H]dGTP, read-out: IC50 on recombinant HIV-1 RT) turn out when `Cc1occc1C(=S)Nc1ccc(Cl)c(C(=O)OC2CCCC2)c1` [Compound IV] was run?
Answer: 49.5 to 212 nM

Question: What about the IC50 (HIV-1 RT (WT); substrate [2,8-3H]dGTP 2.95 μM, template poly(rC)oligo(dG), read-out: IC50, anti-HIV-1 RT (WT) activity (converted)) of the same molecule?
Answer: 49.5 nM

Question: And the EC50 (HIV-1(IIIB) (WT); CEM cells, Table 1, read-out: 50% Effective Concentration)?
Answer: 0.005 µg/mL (≈ 0.0137 µM)

Question: What about the EC50 (HIV-1(IIIB) (WT); HIV-1 (III8), Table 5, read-out: EC50) of the same molecule?
Answer: 0.005 µg/mL (≈ 0.0137 µM)

Question: And the IC50 (HIV-1(IIIB) (WT); range stated for Compounds I-V together, read-out: 50% inhibitory concentration, HIV-1(IIIB) replication in CEM cells)?
Answer: 0.004 to 0.05 µg/mL (≈ 0.011 to 0.137 µM)

Question: What about the “prevention of virus breakthrough, fold more efficient than BHAP” value (HIV-1(IIIB)) of the same molecule?
Answer: at least 5 fold

Question: What about the “prevention of virus breakthrough, fold more efficient than nevirapine” value (HIV-1(IIIB)) of the same molecule?
Answer: ≥ 25 fold

Question: And the activity at 0.1 µg/mL (HIV-1(IIIB); 96 h, day 4 post infection)?
Answer: 0%

Question: And the activity at 0.5 µg/mL (HIV-1(IIIB); 96 h, day 4 post infection)?
Answer: 0%

Question: And the activity at 2.5 µg/mL (HIV-1(IIIB); 96 h, day 4 post infection)?
Answer: 0%

Question: And the activity at 0.1 µg/mL (HIV-1(IIIB); 192 h, day 8 post infection)?
Answer: 0%

Question: And the activity at 0.5 µg/mL (HIV-1(IIIB); 192 h, day 8 post infection)?
Answer: 0%

Question: And the activity at 2.5 µg/mL (HIV-1(IIIB); 192 h, day 8 post infection)?
Answer: 0%

Question: And the activity at 0.1 µg/mL (HIV-1(IIIB); 264 h, day 11 post infection)?
Answer: 0%

Question: What about the activity at 0.5 µg/mL (HIV-1(IIIB); 264 h, day 11 post infection) of the same molecule?
Answer: 0%

Question: And the activity at 2.5 µg/mL (HIV-1(IIIB); 264 h, day 11 post infection)?
Answer: 0%

Question: And the activity at 0.1 µg/mL (HIV-1(IIIB); 336 h, day 14 post infection)?
Answer: 6.2%

Question: And the activity at 0.5 µg/mL (HIV-1(IIIB); 336 h, day 14 post infection)?
Answer: 0%

Question: And the activity at 2.5 µg/mL (HIV-1(IIIB); 336 h, day 14 post infection)?
Answer: 0%

Question: What about the activity at 0.1 µg/mL (HIV-1(IIIB); 408 h, day 17 post infection) of the same molecule?
Answer: 25%

Question: What about the activity at 0.5 µg/mL (HIV-1(IIIB); 408 h, day 17 post infection) of the same molecule?
Answer: 0%

Question: What about the activity at 2.5 µg/mL (HIV-1(IIIB); 408 h, day 17 post infection) of the same molecule?
Answer: 0%

Question: And the activity at 0.1 µg/mL (HIV-1(IIIB); 504 h, day 21 post infection)?
Answer: 87.5%

Question: What about the activity at 0.5 µg/mL (HIV-1(IIIB); 504 h, day 21 post infection) of the same molecule?
Answer: 0%

Question: And the activity at 2.5 µg/mL (HIV-1(IIIB); 504 h, day 21 post infection)?
Answer: 0%

Question: And the activity at 0.1 µg/mL (HIV-1(IIIB); 600 h, day 25 post infection)?
Answer: 100%

Question: What about the activity at 0.5 µg/mL (HIV-1(IIIB); 600 h, day 25 post infection) of the same molecule?
Answer: 0%

Question: And the activity at 2.5 µg/mL (HIV-1(IIIB); 600 h, day 25 post infection)?
Answer: 0%

Question: And the activity at 0.1 µg/mL (HIV-1(IIIB); 672 h, day 28 post infection)?
Answer: 100%

Question: And the activity at 0.5 µg/mL (HIV-1(IIIB); 672 h, day 28 post infection)?
Answer: 0%

Question: And the activity at 2.5 µg/mL (HIV-1(IIIB); 672 h, day 28 post infection)?
Answer: 0%

Question: What about the activity at 0.1 µg/mL (HIV-1(IIIB); 768 h, day 32 post infection) of the same molecule?
Answer: 100%

Question: And the activity at 0.5 µg/mL (HIV-1(IIIB); 768 h, day 32 post infection)?
Answer: 0%

Question: And the activity at 2.5 µg/mL (HIV-1(IIIB); 768 h, day 32 post infection)?
Answer: 0%

Question: And the activity at 0.1 µg/mL (HIV-1(IIIB); 840 h, day 35 post infection)?
Answer: 100%

Question: And the activity at 0.5 µg/mL (HIV-1(IIIB); 840 h, day 35 post infection)?
Answer: 0%

Question: And the activity at 2.5 µg/mL (HIV-1(IIIB); 840 h, day 35 post infection)?
Answer: 0%

Question: And the activity at 0.1 µg/mL (HIV-1(IIIB); [5])?
Answer: 100%

Question: What about the activity at 0.5 µg/mL (HIV-1(IIIB); [5]) of the same molecule?
Answer: 0%

Question: And the activity at 2.5 µg/mL (HIV-1(IIIB); [5])?
Answer: 0%

Question: What about the activity at 0.1 µg/mL (HIV-1(IIIB); [6]) of the same molecule?
Answer: 100%

Question: And the activity at 0.5 µg/mL (HIV-1(IIIB); [6])?
Answer: 0%

Question: And the activity at 2.5 µg/mL (HIV-1(IIIB); [6])?
Answer: 0%

Question: What about the activity at 0.1 µg/mL (HIV-1(IIIB); [7]) of the same molecule?
Answer: 100%

Question: What about the activity at 0.5 µg/mL (HIV-1(IIIB); [7]) of the same molecule?
Answer: 0%

Question: And the activity at 2.5 µg/mL (HIV-1(IIIB); [7])?
Answer: 0%

Question: And the activity at 0.1 µg/mL (HIV-1(IIIB); [8])?
Answer: 100%

Question: And the activity at 0.5 µg/mL (HIV-1(IIIB); [8])?
Answer: 0%

Question: And the activity at 2.5 µg/mL (HIV-1(IIIB); [8])?
Answer: 0%

Question: And the activity at 0.1 µg/mL (HIV-1(IIIB); [9])?
Answer: 100%

Question: And the activity at 0.5 µg/mL (HIV-1(IIIB); [9])?
Answer: 0%

Question: And the activity at 2.5 µg/mL (HIV-1(IIIB); [9])?
Answer: 0%

Question: And the “concentration at which virus emerged (virus breakthrough)” value (HIV-1(IIIB); tested at 0.1, 0.5 and 2.5 μg/ml, 35 days)?
Answer: 0.1 µg/mL

Question: And the EC50 [1]?
Answer: 0.035 µg/mL (≈ 0.0962 µM)

Question: And the EC50 (HIV-1/II(0.1) 100-Ile)?
Answer: 0.4 µg/mL (≈ 1.1 µM)

Question: And the EC50 [2]?
Answer: 0.7 µg/mL (≈ 1.92 µM)

Question: What about the EC50 [3] of the same molecule?
Answer: 0.11 µg/mL (≈ 0.302 µM)

Question: And the EC50 (HIV-1/V(0.5) 103-Asn)?
Answer: 0.65 µg/mL (≈ 1.79 µM)

Question: What about the EC50 (HIV-1/III(0.1) 103-Asn) of the same molecule?
Answer: 0.14 µg/mL (≈ 0.385 µM)

Question: What about the EC50 (HIV-1/Nev (106-Ala)) of the same molecule?
Answer: 0.04 µg/mL (≈ 0.11 µM)

Question: What about the EC50 [4] of the same molecule?
Answer: 0.17 µg/mL (≈ 0.467 µM)

Question: What about the EC50 (HIV-1/I(0.1) 103-Asn) of the same molecule?
Answer: 0.2 µg/mL (≈ 0.55 µM)

Question: What about the EC50 (HIV-1/Pyr (181-Cys)) of the same molecule?
Answer: 0.045 µg/mL (≈ 0.124 µM)

Question: And the EC50 (HIV-1/IV(0.1) 103-Thr)?
Answer: 0.53 µg/mL (≈ 1.46 µM)
